In patent US9181235B2, “Substituted pyridines for modulating the WNT signaling pathway” (NOVARTIS AG, priority 2010, dated 2015):

Columns and labels:
Wnt signaling = test: Wnt-Luc reporter assay for pathway inhibition of Wnt signaling; format: cell-based, mouse (TM3 Wnt-Luc) or human (293 Wnt-Luc); not stated which; details: Wnt-Luc reporter cells co-cultured with L-cell Wnt3a cells, 24 hours
Method in brief: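 Stable STF (Wnt-responsive luciferase) reporter lines, mouse TM3 or human HEK293, co-cultured with Wnt3a-producing L-cells in DMEM with 2% FBS and treated with compound for 24 h. Firefly luciferase read by Bright-Glo; IC50 taken as concentration giving 50% reduction in luminescence.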

[1] = Comparative stability in simulated gastric fluid (SGF), degradation by LCMS; format: physicochemical; details: 50° C. SGF, LCMS UV peak areas at 254 nm
Experimental: The stability of exemplified compounds of the invention were compared with N-(hetero)aryl, 2-(heteroy)aryl-substituted acetamides. Test compounds were dissolved or suspended in a specified media (e.g. simulated gastric fluid (SGF)). The resulting solution or suspension was kept at the testing temperature (e.g. 50° C.) for a given time (e.g. 4 hours), and the extent of degradation was quantified by LCMS using the respective UV absorption peak areas at 254 nm.

[2] = luciferase signal reduced by 50%

Question: Which IC50 (Wnt signaling; [2]) does the source give for Cc1cc(-c2ccc(CNC(=O)c3ccn(-c4cccc(F)c4)c(=O)c3)cn2)ccn1 [compound 89, 1-(3-Fluorophenyl)-N-((2′-methyl-[2,4′-bipyridin]-5-yl)methyl)-2-oxo-1,2-dihydropyridine-4-carboxamide] here?
Answer: Its IC50 is 12.5 nM.

Question: Which IC50 (Wnt signaling; [2]) does the source give for Cc1cc(CNC(=O)c2ccn(-c3cccc(F)c3)c(=O)c2)cnc1-c1ccnc(C(F)(F)F)c1 [compound 90, 1-(3-fluorophenyl)-N-({5-methyl-6-[2-(trifluoromethyl)pyridin-4-yl]pyridin-3-yl}methyl)-2-oxo-1,2-dihydropyridine-4-carboxamide] here?
Answer: The IC50 was 6.6 nM.

Question: With Cc1cc(-n2ccc(CNC(=O)c3ccc(-c4cccc(F)c4)cn3)cc2=O)ccn1 [compound 91, 5-(3-fluorophenyl)-N-{[1-(2-methylpyridin-4-yl)-2-oxo-1,2-dihydropyridin-4-yl]methyl}pyridine-2-carboxamide] as the compound, how does the IC50 (Wnt signaling; [2]) read?
Answer: Its IC50 is 3.8 nM.

Question: For Cc1cn(-c2ccc(CNC(=O)c3ccc(-c4ccccc4)cc3)cc2)cn1 [compound 92, N-(4-(4-methyl-1H-imidazol-1-yl)benzyl)biphenyl-4-carboxamide], which IC50 (Wnt signaling; [2]) is on record?
Answer: Its IC50 is 0.5 nM.

Question: With O=C(NCC1CCN(C(=O)c2ccnc(F)c2)CC1)c1ccc(-c2cccc(F)c2)nc1 [compound 93, N-((1-(2-Fluoroisonicotinoyl)piperidin-4-yl)methyl)-6-(3-fluorophenyl)nicotinamide] as the compound, how does the IC50 (Wnt signaling; [2]) read?
Answer: The IC50 was 92 nM.

Question: Which IC50 (Wnt signaling; [2]) does the source give for O=C(NCC1CN(C(=O)c2ccnc(F)c2)C1)c1ccc(-c2cccc(F)c2)nc1 [compound 94, 6-(3-fluorophenyl)-N-({1-[(2-fluoropyridin-4-yl)carbonyl]azetidin-3-yl}methyl)pyridine-3-carboxamide] here?
Answer: The IC50 was 290 nM.

Question: With Cc1cc(-c2ccc(CNC(=O)c3ccc(Oc4ccccc4)nc3)cn2)ccn1 [compound 95, N-((2′-methyl-[2,4′-bipyridin]-5-yl)methyl)-6-phenoxynicotinamide] as the compound, how does the IC50 (Wnt signaling; [2]) read?
Answer: Its IC50 is 420 nM.

Question: For Cc1cc(C(=O)NCc2cnc(-c3ccnc(C(F)(F)F)c3)c(C)c2)ncc1-c1ncccc1C [compound 96], which IC50 (Wnt signaling; Table 2) is on record?
Answer: The IC50 was > 2000 nM.

Question: Which IC50 (Wnt signaling; Table 2) does the source give for Cc1cc(-c2ncc(CNC(=O)c3cc(C)c(-c4cccc(F)c4)cn3)cc2C)ccn1 [compound 97] here?
Answer: Its IC50 is > 1800 nM.

Question: For Cc1cc(C(=O)NCc2cnc(-c3ccnc(C(F)(F)F)c3)c(C)c2)ncc1-c1cccnc1C [compound 98], which IC50 (Wnt signaling; Table 2) is on record?
Answer: The IC50 was > 1200 nM.

Question: With Cc1cc(C(=O)NCc2cnc(-c3ccnc(C(F)(F)F)c3)c(C)c2)ncc1-c1cccc(F)c1C [compound 99] as the compound, how does the IC50 (Wnt signaling; Table 2) read?
Answer: The IC50 was 1100 nM.

Question: With CC(=O)N1CCN(c2ccc(C(=O)NCc3ccc(-c4ccnnc4)cc3)cc2)CC1 [compound 100] as the compound, how does the IC50 (Wnt signaling; Table 2) read?
Answer: Its IC50 is > 20000 nM.

Question: With Cc1cc(-c2ncc(CNC(=O)c3ccc(-c4cnccn4)cn3)cc2F)ccn1 [drawing 199] as the compound, how does the “% degradn. @ 4 hr” value [1] read?
Answer: Its value is ~0%.

Question: What about the “% degradn. @ 8 hr” value [1] of the same compound?
Answer: Its value is ~0. %.

Question: And the “% degradn. @ 24 hr” value [1]?
Answer: Its value is ~0%.

Question: With Cc1cc(CNC(=O)c2ccc(-c3cnccn3)cn2)cnc1-c1ccnc(C(F)(F)F)c1 [drawing 200] as the compound, how does the “% degradn. @ 24 hr” value [1] read?
Answer: The value was ~0%.

Question: What does the source list for O=C(Cc1ccc(-c2ccnnc2)c(C(F)(F)F)c1)Nc1ccc(-c2cccnn2)cn1 [reference compound]?
Answer: % degradn. @ 4 hr [1]: 11.5%; % degradn. @ 8 hr [1]: 16.6%; % degradn. @ 24 hr [1]: 26.7%

Question: With Cc1cc(CC(=O)Nc2ccc(-c3cccc(F)c3)cn2)cnc1-c1ccnnc1 [reference compound] as the compound, how does the “% degradn. @ 24 hr” value [1] read?
Answer: The value was 25.0%.
